Test results from article PMC11969138, “LNS8801: An Enantiomerically Pure Agonist of the G Protein–Coupled Estrogen Receptor Suitable for Clinical Development” (Cancer Research Communications, 2025).

Legend:
Assay in all cases: Eurofins DiscoverX SAFETYscan off-target panel
Format in all cases: cell-based
HTR2A = HTR2A (Homo sapiens, UniProt P28223)
OPRD1 = OPRD1 (Homo sapiens, UniProt P41143)
OPRM1 = OPRM1 (Homo sapiens, UniProt P35372)
androgen receptor (AR) = molecular target: T1, androgen receptor (AR) (Homo sapiens, UniProt P10275)
T1 sequence (P10275 1-920): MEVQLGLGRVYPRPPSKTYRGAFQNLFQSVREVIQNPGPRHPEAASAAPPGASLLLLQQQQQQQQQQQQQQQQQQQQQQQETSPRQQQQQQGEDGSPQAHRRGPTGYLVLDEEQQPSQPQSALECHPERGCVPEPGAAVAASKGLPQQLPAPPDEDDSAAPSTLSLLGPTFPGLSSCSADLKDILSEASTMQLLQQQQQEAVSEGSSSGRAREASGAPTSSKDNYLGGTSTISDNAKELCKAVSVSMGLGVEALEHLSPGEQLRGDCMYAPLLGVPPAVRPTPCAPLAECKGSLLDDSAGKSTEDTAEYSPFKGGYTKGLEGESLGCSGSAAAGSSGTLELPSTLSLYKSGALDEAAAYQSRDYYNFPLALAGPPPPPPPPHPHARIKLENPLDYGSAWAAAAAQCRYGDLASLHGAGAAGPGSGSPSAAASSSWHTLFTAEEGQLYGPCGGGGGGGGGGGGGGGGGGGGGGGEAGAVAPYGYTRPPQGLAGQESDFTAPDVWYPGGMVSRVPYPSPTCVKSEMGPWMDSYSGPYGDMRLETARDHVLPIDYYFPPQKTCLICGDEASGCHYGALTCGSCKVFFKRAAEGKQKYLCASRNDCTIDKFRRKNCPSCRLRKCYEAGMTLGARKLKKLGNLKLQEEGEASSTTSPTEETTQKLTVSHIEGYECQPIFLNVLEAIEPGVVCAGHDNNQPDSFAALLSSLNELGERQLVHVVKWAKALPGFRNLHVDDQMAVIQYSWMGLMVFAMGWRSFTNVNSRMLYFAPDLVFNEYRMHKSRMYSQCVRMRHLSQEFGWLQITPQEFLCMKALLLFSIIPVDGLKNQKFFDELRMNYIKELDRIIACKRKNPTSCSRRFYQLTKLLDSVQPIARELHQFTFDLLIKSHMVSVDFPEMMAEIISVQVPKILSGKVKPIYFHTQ

HTR1A = molecular target: T2, HTR1A (Homo sapiens, UniProt P08908)
T2 sequence (P08908 1-422): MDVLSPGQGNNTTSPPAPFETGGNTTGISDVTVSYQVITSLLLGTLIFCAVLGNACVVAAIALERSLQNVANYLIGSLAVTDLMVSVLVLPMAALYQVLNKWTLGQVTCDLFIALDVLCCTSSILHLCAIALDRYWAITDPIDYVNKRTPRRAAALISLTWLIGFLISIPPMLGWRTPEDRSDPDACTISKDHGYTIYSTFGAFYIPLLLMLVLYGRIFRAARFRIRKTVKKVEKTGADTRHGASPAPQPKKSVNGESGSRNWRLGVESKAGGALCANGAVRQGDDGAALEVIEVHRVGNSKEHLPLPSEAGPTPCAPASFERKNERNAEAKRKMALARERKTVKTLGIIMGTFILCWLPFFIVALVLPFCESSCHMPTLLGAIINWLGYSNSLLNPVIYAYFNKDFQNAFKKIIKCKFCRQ

ADRA2A = molecular target: T3, ADRA2A (Homo sapiens, UniProt P08913)
T3 sequence (P08913 1-465): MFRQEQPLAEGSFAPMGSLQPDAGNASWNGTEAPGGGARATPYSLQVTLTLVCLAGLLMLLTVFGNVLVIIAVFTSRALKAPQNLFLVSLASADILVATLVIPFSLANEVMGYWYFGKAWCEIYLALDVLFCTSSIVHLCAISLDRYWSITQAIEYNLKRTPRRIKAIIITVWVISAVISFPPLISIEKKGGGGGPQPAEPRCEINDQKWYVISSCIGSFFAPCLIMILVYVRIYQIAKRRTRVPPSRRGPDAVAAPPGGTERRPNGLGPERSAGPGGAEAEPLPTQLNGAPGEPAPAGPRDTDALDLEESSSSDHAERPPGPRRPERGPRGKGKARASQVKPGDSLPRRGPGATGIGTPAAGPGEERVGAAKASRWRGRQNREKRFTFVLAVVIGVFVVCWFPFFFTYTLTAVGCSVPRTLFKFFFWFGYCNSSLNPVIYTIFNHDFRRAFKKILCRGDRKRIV

OPRD1, sequence (P41143 whole entry): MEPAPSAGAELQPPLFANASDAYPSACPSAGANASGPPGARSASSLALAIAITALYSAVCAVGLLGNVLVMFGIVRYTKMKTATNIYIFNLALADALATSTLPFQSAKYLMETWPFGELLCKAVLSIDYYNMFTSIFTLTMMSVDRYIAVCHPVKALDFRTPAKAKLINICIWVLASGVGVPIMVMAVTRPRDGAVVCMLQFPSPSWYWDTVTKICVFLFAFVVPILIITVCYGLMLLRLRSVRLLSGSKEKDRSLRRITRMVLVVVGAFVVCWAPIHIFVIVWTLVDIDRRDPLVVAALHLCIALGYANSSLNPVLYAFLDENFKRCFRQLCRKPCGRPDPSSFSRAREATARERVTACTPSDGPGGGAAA
HTR2A, sequence (P28223 whole entry): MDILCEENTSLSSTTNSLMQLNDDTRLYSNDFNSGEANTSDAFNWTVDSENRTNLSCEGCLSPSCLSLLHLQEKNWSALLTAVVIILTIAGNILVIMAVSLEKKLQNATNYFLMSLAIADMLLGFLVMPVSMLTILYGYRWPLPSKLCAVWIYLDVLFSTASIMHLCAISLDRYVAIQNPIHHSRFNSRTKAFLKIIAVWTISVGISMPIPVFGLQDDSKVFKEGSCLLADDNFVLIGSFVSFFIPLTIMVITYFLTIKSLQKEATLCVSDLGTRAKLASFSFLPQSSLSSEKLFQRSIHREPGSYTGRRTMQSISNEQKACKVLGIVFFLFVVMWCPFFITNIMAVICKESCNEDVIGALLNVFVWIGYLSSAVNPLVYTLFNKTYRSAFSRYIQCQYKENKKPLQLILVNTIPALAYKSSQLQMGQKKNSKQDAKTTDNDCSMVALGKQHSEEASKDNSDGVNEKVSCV
OPRM1, sequence (P35372 whole entry): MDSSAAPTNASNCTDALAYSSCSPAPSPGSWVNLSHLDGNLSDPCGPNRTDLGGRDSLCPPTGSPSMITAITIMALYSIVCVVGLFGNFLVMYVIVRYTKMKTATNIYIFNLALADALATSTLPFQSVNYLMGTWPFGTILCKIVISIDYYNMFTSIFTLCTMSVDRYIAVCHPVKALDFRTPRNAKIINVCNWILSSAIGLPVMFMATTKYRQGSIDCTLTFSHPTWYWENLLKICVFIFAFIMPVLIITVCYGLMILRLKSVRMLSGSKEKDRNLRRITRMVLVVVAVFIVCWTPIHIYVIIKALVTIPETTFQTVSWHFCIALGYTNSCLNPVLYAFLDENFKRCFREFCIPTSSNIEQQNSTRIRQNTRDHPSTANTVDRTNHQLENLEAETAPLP

SMILES | IC50 (HTR2A) [µM] | EC50 (OPRD1) [µM] | IC50 (OPRM1) [µM] | IC50 (androgen receptor (AR)) [µM] | IC50 (HTR1A) [µM] | IC50 (ADRA2A) [µM]
CC(=O)c1ccc2c(c1)[C@@H]1C=CC[C@@H]1[C@H](c1cc3c(cc1Br)OCO3)N2 (racemic) [LNS8801, 1-[(3aS,4R,9bR)-4-(6-bromo-1,3-benzodioxol-5-yl)-3a,4,5,9b-tetrahydro-3H-cyclopenta[c]quinolin-8-yl] ethanone] | 8.2 | 0.87 | 3.5 | – | – | –
CC(=O)c1ccc2c(c1)C1C=CCC1C(c1cc3c(cc1Br)OCO3)N2 (racemic) [LNS8812] | – | – | – | 4.8 | 2 | 2
